Source: patent US20220402872A1, “PHOTOPOLYMERIZABLE ANTIBACTERIAL MONOMER” (UNIVERSITA' DEGLI STUDI DI TRIESTE, priority 2019, published 2022)

What was measured:
Type in all cases: cell-based
E. coli (ATCC25922) = experiment: Determination of the minimum inhibitory concentration (MIC); settings: Escherichia coli
Method: (§1) A colony of bacterium taken from agar plate is inoculated in Brain Hearth Infusion medium (BHI) and grown overnight at 37° C. The next day, the bacteria are diluted in fresh medium containing the phenol red indicator, up to a density of 10^6 bacteria/mL.
(§2) A stock solution of 2 mg/mL of compound is prepared in BHI medium containing phenol red.
(§3) In a 96-well plate, the compound stock solution is diluted serially (the concentration is halved at each step) to obtain the following final concentrations after addition of the bacteria suspension: 1 mg/mL; 0.5 mg/mL; 0.25 mg/mL; 0.125 mg/mL; 0.065 mg/mL; 0.032 mg/mL; 0.016 mg/mL; 0.008 mg/mL; 0.004 mg/mL; 0.002 mg/mL; 0.001 mg/mL. A compound-free medium is used as a growth control. A volume of bacterial suspension equal to 0.5*10^6 bacteria/mL is added to each well containing the compound and the control. The dish is incubated at 37° C. for 24 hours. Bacterial growth in each well is detected by the phenol red, which turns from red to yellow following acidification of the medium induced by bacterial metabolism. The lowest concentration of the compound causing no evident color change corresponds to the MIC.
(§4) The compounds according to Examples 1, 3, 5, 6, and 7 were tested on bacterial strains different from S. mutans with the same methods described above, obtaining the MIC and MBC values reported in Table 2.

S. Aureus (ATCC 25923) [1] = experiment: as above; settings: Staphylococcus aureus, ATCC25923
Method: as §1, §2, §3, §4

S. Mitis (ATCC 49456) = experiment: as above; settings: Streptococcus mitis, ATCC49456
Method: as §1, §2, §3, §4

S. Sanguis (ATCC 10556) [2] = experiment: as above
Method: as §1, §2, §3, §4

S. Aureus (ATCC 25923) [3] = experiment: Determination of the minimum bactericidal concentration (MBC)
Method: (§5) A 20 mg/mL compound stock solution in BHI medium is prepared. In a 96-well plate, the compound solution is diluted serially (the concentration is halved at each step) to obtain the following final concentrations after addition of the bacteria suspension: 10 mg/mL; 5 mg/mL; 2.5 mg/mL; 1.25 mg/mL; 0.625 mg/mL; 0.31 mg/mL; 0.15 mg/mL; 0.08 mg/mL; 0.04 mg/mL; 0.02 mg/mL. Wells containing a mixture of penicillin and streptomycin antibiotics are used as a positive control. Compound-free medium is used as a growth control. A volume of bacterial suspension equal to 0.5*10^6 bacteria/mL is added to each well containing the compound and the controls. The dish is incubated at 37° C. for 24 hours. The lowest compound concentration at which no turbidity of the culture medium is evident is defined as MIC. For the calculation of MBC, aliquots equal to 50 μL are taken from the wells showing evident no turbidity of the medium and are plated on BHI agar plates for 48 hours. […] Bacterial suspensions taken from the positive control (growth medium only) and the negative control (growth medium with Ampicilin 100 μg/mL) are also seeded.
as §4

S. Sanguis (ATCC 10556) [4] = experiment: as above
Method: as §5, §4

[5] = test system: primary cells from human dental pulp; experiment: Determination of the cytotoxicity (MTS assay); settings: for maximum (tested) non-cytotoxic concentration: primary dental pulp cells
Method: Tested cells: primary from dental pulp in complete high glucose DMEM medium+1 mg ascorbic acid, seeded in 96-well dishes;
Cell viability detection method: MTS assay from Promega (CellTiter 96® AQueous One Solution Cell Proliferation Assay) colorimetric metabolic assay that allows to evaluate variations in the number of cells being a dye reduced by cellular dehydrogenases. The greater the number of cells, the greater the amount of reduced compound;
Execution time: 24 hours and 72 hours from treatment;
Negative control: cells seeded in complete DMEM medium (CNT) are used;
Number of samples: for 24 hours, 6 samples of each type; for 72 hours 8 samples of each type.
Procedure: Cells (6000/well) are seeded on a 96-well dish to form a monolayer at approximately 40% confluence. After 24 hours the medium is replaced by a medium in which the compound has previously been solubilized, sterilized by 0.22 micron filtration. Growth medium alone is used as a negative control (CNT). At the following 24 and 72 hours the colorimetric test is performed. The absorbance values for each sample are averaged and the standard deviation calculated. The percent viability is calculated on the negative control.
The compounds according to Examples 1, 5, 6, and 7 were tested in order to evaluate their cytotoxicity on primary cells from human dental pulp according to the “Determination of cytotoxicity” method described above, obtaining the values reported respectively in the following Tables 3, 4, 5, and 6. Cells were extracted from healthy third molars of patients after informed consent (Authorization Single Regional Committee FVG, study ID 2433, 29 Aug. 2018). After extraction, the stem cell nature was ascertained by evaluating the expression of the positive markers CD 90, CD 73, CD 29 and the negative markers CD 14, CD 34 and CD 45.

bacteria grown on agar = experiment: Determination of bacterial inhibition - agar diffusion test of primer formulations; settings: for zone of inhibition at 5 % strength: 5% by weight of compound; for zone of inhibition at 10 % strength: 10% by weight of compound
Text: A test adapted from a commonly used method for determining the sensitivity of a bacterial strain to antibiotics in solution, known as Kirby-Bauer antibiotic testing or disc diffusion antibiotic sensitivity testing was used (Brown D F, Kothari D (1975), “Comparison of antibiotic discs from different sources”, J. Clin. Pathol. 28 (10): 779-83. Doi: 10.1136 /jcp.28.10.779). The test performed involves the use of discs imbued with a known concentration of the substance under examination that are placed on a layer of bacteria grown on agar. The diffusion of the bactericidal molecule from the disk into the agar causes the inhibition of bacterial growth in the area surrounding the disk itself where the molecule has spread with the formation of what are called zones of growth inhibition. The diameter of these inhibition zones (transparent circular regions in comparison to the bacterial film) is proportional to the antibacterial efficacy of the molecule to its concentration and to its diffusion ability in the medium.
The bactericidal properties of the compounds according to Examples 1, 3, 5, 6 and 7 were tested in various primer-type preparations, using the method “Bacterial inhibition determination-Agar diffusion test” described above. The disk soaked in the tested primer formulation without addition of compounds according to Examples 1, 3, 5, 6 and 7 was used as a negative reference.
For the tests, the following primer-type formulations were used, identified by the following codes: […]

[6] = primer L1B, 1% by weight of compound
[7] = primer L3, 1% by weight of compound
[8] = primer PaA, 1% by weight of compound

SMILES	MIC (E. coli (ATCC25922)) [µg/mL]	MIC (S. Aureus (ATCC 25923) [1]) [µg/mL]	MIC (S. Mitis (ATCC 49456)) [µg/mL]	MIC (S. Sanguis (ATCC 10556) [2]) [µg/mL]	MCB (S. Aureus (ATCC 25923) [3]) [mg/mL]	MCB (S. Sanguis (ATCC 10556) [4]) [mg/mL]	% Viability 24 h ([5]; 10 μg/mL) [%]	% Viability 72 h ([5]; 10 μg/mL) [%]	% Viability 24 h ([5]; 50 μg/mL) [%]	% Viability 72 h ([5]; 50 μg/mL) [%]	% Viability 24 h ([5]; 100 μg/mL) [%]	% Viability 72 h ([5]; 100 μg/mL) [%]	% Viability 24 h ([5]; 500 μg/mL) [%]	% Viability 72 h ([5]; 500 μg/mL) [%]	zone of inhibition at 1 % strength (bacteria grown on agar; [6]) [mm]	% Viability 24 h ([5]; 1 μg/mL) [%]	% Viability 72 h ([5]; 1 μg/mL) [%]	% Viability 24 h ([5]; 1 mg/mL) [%]	zone of inhibition at 1 % strength (bacteria grown on agar; [7]) [mm]	zone of inhibition at 1 % strength (bacteria grown on agar; [8]) [mm]	other results
C=C(C)C(=O)OCC[N+](C)(C)CCCCCCCCCCCC[N+](C)(C)CCOC(=O)C(=C)C.[Br-].[Br-] [Example 1]	625	156	310	310	0.156	0.62	95.3 ± 12.5	110.0 ± 13.8	105.6 ± 11.2	111.0 ± 7.2	102.7 ± 7.2	122.4 ± 7.0	86.6 ± 5.5	115.3 ± 11.6	5						decrease in cell viability [5]: did not show significant signs of decrease in cell viability; % Viability 24 h ([5]; 2 mg/mL): 80.6 ± 5.3%; % Viability 72 h ([5]; 2 mg/mL): 76.9 ± 8.4%; zone of inhibition at 1 % strength (bacteria grown on agar; primer L1A, 1% by weight of compound): 15 mm; zone of inhibition at 5 % strength (bacteria grown on agar; primer L1A): 20 mm; zone of inhibition at 10 % strength (bacteria grown on agar; primer L1A): 25 mm; zone of inhibition at 5 % strength (bacteria grown on agar; primer L1B): 15 mm; zone of inhibition at 10 % strength (bacteria grown on agar; primer L1B): 19 mm; zone of inhibition at 1 % strength (bacteria grown on agar; primer L1C, 1% by weight of compound): 10 mm; zone of inhibition at 5 % strength (bacteria grown on agar; primer L1C): 15 mm; zone of inhibition at 10 % strength (bacteria grown on agar; primer L1C): 20 mm
C=C(C)C(=O)Nc1ccc([N+](C)(C)CCCCCCCCCCCC[N+](C)(C)c2ccc(NC(=O)C(C)=O)cc2)cc1.[Br-].[Br-] [Example 6]	2	10	10	5	0.01	0.005	99.5 ± 13.5	97.7 ± 14	81.7 ± 8.2	71.5 ± 16.3	11.3 ± 2.1	2.0 ± 0.8	1.6 ± 0.9	2.6 ± 3.6	14	95.2 ± 13.2	103.2 ± 18.9	2.5 ± 0.9	15	15	% Viability 72 h ([5]; 1 mg/mL): 3.5 ± 1.5%
C=C(C)C(=O)NCc1cc[n+](CCCCCCCCCCCC[n+]2ccc(CNC(=O)C(=C)C)cc2)cc1.[Br-].[Br-] [Example 7]	2.5	2.5	20	10	0.005	0.02	105.9 ± 11.9	100.6 ± 17.7	96.1 ± 10.5	86.3 ± 16.4	91.7 ± 12.0	71.8 ± 13.4	91.9 ± 16.8	26.5 ± 5.1	17	110.8 ± 15.9	97.3 ± 17.5	49.1 ± 8.1	14	13	% Viability 72 h ([5]; 1 mg/mL): 5.0 ± 2.3%; maximum (tested) non-cytotoxic concentration [5]: 50 µg/mL
C=C(C)C(=O)OCC[N+](CC)(CC)CCCCCCCCCCCC[N+](CC)(CC)CCOC(=O)C(=C)C.[Br-].[Br-] [Example 5]	78	20	39	20	0.039	0.039	119.2 ± 6.8	69.7 ± 17.0	83.4 ± 4.5	70.8 ± 17.8	95.9 ± 7.2	68.8 ± 17.5	2.5 ± 1.0		14	124.2 ± 6.3	72.6 ± 16.5		13	12	maximum (tested) non-cytotoxic concentration [5]: 100 µg/mL
